Experimental data: paper PMC4775387 (Neurochemical research, 2015)

Test system: D4 receptors, ICR mouse striatum
Assay: Antagonist effect on D-301-stimulated [35S]GTPγS binding in ICR mouse striatum
Format: biochemical
Details: antagonist concentrations up to 1 μM, unpublished data

Clc1ccc(N2CCN(Cc3c[nH]c4ncccc34)CC2)cc1 [LY745870]
effect on D-301-stimulated [35S]GTPγS binding: no significant effect
